Patent US9347934B2, “Assays for identifying compounds that modulate bitter taste” (CHROMOCELL CORPORATION, priority 2011, dated 2016)

Tests used:
TAS2R3 = biological target: T1, TAS2R3 (Homo sapiens, UniProt Q9NYW6); assay: Calcium fluorescence functional assay, TAS2R3 cell line; format: cell-based; conditions: 20 mM tastant; cell line expressing human TAS2R3 and mouse Gα15
T1 construct: expressed in transfected cells
T1 sequence (Q9NYW6 1-316): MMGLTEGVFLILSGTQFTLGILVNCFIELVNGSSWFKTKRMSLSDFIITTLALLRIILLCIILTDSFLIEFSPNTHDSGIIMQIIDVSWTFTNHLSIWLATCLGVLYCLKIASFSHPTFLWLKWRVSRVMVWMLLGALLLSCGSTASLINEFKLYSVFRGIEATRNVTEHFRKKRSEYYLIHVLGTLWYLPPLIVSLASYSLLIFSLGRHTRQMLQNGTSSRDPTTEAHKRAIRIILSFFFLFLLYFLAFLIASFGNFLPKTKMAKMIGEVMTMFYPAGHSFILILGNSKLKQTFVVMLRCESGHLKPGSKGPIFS
Method: (§1) Accordingly, each cell line of the panel expressed a human bitter taste receptor and mouse Gα15 signaling protein.
(§2) Probenecid was not included in the load solution.
(§3) After dye loading, cell plates were placed in a fluorescent plate reader (e.g., FDSS6000 (Hamamatsu, Japan)) and receptor stimulation was measured by adding 50 ul of 3× concentrated ligand/agonist stock. Fluorescence was monitored continuously for 10 s before agonist addition and for 100-250 s after stimulation with agonist.
(§4) Receptor Activation is defined as follows: % Activation=[((Maximum signal fluorescence−Minimum signal fluorescence)−(Maximum control fluorescence−Minimum control fluorescence))/(Maximum buffer fluorescence−Minimum buffer fluorescence)]*100 Functional Response=[(Maximum signal fluorescence−Minimum signal fluorescence)−(Maximum control fluorescence−Minimum control fluorescence)] • Signal Fluorescence: refers to the change in fluorescence seen with addition of ligand • Control fluorescence: refers to the change in fluorescence seen with addition of buffer (negative control) • Calcium signals from ligand and control were normalized to the basal fluorescence of the cells prior to the stimulation.
(§5) A concentration analysis was performed and EC50 values were calculated by nonlinear regression using the formula: Y=Bottom+(Top-Bottom)/(1+10^((Log EC50-X)*Hill Slope)), X=log of dose or concentration, Y=Response (increasing as X increases), Top=maximum signal, Bottom=minimum signal.

TAS2R5 = biological target: T2, TAS2R5 (Homo sapiens, UniProt Q9NYW4); assay: Calcium fluorescence functional assay, TAS2R5 cell line; format: cell-based; conditions: 20 mM tastant; cell line expressing human TAS2R5 and mouse Gα15
T2 construct: expressed in transfected cells
T2 sequence (Q9NYW4 1-299): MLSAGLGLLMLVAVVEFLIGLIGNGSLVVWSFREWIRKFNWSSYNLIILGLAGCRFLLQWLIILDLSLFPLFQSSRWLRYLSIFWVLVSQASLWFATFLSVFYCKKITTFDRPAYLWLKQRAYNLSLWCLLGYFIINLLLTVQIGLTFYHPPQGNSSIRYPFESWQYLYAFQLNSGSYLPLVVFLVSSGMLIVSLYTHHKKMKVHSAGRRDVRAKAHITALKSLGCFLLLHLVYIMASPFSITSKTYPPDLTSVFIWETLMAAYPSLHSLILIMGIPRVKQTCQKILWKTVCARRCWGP
Method: as §1, §2, §3, §4, §5

TAS2R14 = biological target: T3, TAS2R14 (Homo sapiens, UniProt Q9NYV8); assay: Calcium fluorescence functional assay, TAS2R14 cell line; format: cell-based; conditions: for TAS2R14 bitter taste receptor activity (changes in intracellular calcium): 20 mM tastant, cell line expressing human TAS2R14 and mouse Gα15
T3 construct: expressed in transfected cells
T3 sequence (Q9NYV8 1-317): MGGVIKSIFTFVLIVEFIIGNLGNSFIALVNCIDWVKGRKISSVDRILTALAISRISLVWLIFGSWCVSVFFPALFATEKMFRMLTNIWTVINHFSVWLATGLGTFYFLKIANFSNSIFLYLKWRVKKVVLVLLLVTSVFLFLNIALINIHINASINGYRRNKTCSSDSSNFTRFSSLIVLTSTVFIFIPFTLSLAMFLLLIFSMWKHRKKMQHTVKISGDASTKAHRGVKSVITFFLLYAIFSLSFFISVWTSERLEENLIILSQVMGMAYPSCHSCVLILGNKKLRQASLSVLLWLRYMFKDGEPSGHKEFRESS
Method: as §1, §2, §3, §4, §5

TAS2R46 = biological target: T4, TAS2R46 (Homo sapiens, UniProt P59540); assay: Calcium fluorescence functional assay, TAS2R46 cell line; format: cell-based; conditions: 20 mM tastant; cell line expressing human TAS2R46 and mouse Gα15
T4 construct: expressed in transfected cells
T4 sequence (P59540 1-309): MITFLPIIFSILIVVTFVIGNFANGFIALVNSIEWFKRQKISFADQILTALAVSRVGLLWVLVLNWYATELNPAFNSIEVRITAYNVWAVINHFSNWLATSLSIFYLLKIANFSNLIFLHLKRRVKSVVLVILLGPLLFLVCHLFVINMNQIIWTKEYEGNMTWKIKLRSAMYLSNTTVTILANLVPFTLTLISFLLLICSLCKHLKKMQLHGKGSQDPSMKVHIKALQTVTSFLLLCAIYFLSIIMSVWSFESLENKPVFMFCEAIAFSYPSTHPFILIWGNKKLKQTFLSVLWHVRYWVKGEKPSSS
Method: as §1, §2, §3, §4, §5

TAS2R48 = biological target: T5, TAS2R48 (Homo sapiens, UniProt P59542); assay: Calcium fluorescence functional assay, TAS2R48 cell line; format: cell-based; conditions: 20 mM tastant; cell line expressing human TAS2R48 and mouse Gα15
T5 construct: expressed in transfected cells
T5 sequence (P59542 1-299): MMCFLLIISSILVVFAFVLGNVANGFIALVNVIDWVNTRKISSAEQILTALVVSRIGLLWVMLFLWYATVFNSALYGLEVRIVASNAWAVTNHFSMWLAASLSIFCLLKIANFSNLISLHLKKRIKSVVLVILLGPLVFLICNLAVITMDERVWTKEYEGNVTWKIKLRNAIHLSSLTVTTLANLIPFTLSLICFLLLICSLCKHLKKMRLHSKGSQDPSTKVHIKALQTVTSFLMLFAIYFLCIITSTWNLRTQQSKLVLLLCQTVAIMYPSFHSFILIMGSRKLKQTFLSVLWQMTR
Method: as §1, §2, §3, §4, §5

TAS2R49 = biological target: T6, TAS2R49 (Homo sapiens, UniProt P59543); assay: Calcium fluorescence functional assay, TAS2R49 cell line; format: cell-based; conditions: 20 mM tastant; cell line expressing human TAS2R49 and mouse Gα15
T6 construct: expressed in transfected cells
T6 sequence (P59543 1-309): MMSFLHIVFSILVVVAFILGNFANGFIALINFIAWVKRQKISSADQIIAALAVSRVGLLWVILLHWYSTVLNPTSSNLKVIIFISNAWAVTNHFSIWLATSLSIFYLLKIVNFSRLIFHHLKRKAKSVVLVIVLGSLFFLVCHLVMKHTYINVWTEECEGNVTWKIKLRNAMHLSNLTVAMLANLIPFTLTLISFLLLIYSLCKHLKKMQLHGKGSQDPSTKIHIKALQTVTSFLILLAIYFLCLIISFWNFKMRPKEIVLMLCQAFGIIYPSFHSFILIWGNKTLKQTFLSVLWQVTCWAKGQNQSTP
Method: as §1, §2, §3, §4, §5

[1] = system: panel of twenty-five bitter taste receptor expressing cell lines; assay: Panel of twenty-five bitter receptor expressing cell lines exposed to 20 mM tastant; format: cell-based, human; conditions: the remaining nineteen (KCl) or eighteen receptors
Method: as §1, §2, §3, §4

| Structure (SMILES) | TAS2R3 bitter taste receptor activity (changes in intracellular calcium) (TAS2R3) | TAS2R5 bitter taste receptor activity (changes in intracellular calcium) (TAS2R5) | TAS2R14 bitter taste receptor activity (changes in intracellular calcium) (TAS2R14) | TAS2R46 bitter taste receptor activity (changes in intracellular calcium) (TAS2R46) | TAS2R48 bitter taste receptor activity (changes in intracellular calcium) (TAS2R48) | TAS2R49 bitter taste receptor activity (changes in intracellular calcium) (TAS2R49) | functional response of the remaining (non-responding) receptors of the panel, threshold [1] [%] | EC50 (TAS2R14; increasing concentrations of KCl, TAS2R14 cell line (FIG. 3), read-out: EC50 value, activation of TAS2R14) [mM] |
| --- | --- | --- | --- | --- | --- | --- | --- | --- |
| CC1=CC(=O)NS(=O)(=O)O1 [Acesulfame K] | did not induce | did not induce | induced | did not induce | did not induce | did not induce | ≤ 40 | – |
| [Cl-].[K+] [KCl, potassium chloride] | did not induce | did not induce | induced | did not induce | did not induce | did not induce | ≤ 40 | 5 to 15 |
| CC(O)C(=O)[O-].[K+] (stereo not shown) [Potassium lactate, potassium lactate] | did not induce | did not induce | induced | induced | did not induce | did not induce | ≤ 40 | – |
